Experiments:
barnyardgrass [1] = assay: Test A pre-/postemergence herbicide test; format: in vivo, Echinochloa crus-galli
Procedure, shortened: (§1)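 Formulated compound (non-phytotoxic solvent, surfactant) sprayed pre- onto soil of seeded loam/sand pots or post- onto seedlings at 1–2 leaves; ~10 d greenhouse; 0–100 visual control rating versus untreated.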

crabgrass, large = assay: Test A pre-/postemergence herbicide test; format: in vivo, Digitaria sanguinalis
Procedure, shortened: as §1

giant foxtail = assay: Test A pre-/postemergence herbicide test; format: in vivo, Setaria faberii
Procedure, shortened: as §1

morningglory = assay: Test A pre-/postemergence herbicide test; format: in vivo, Ipomoea spp.
Procedure, shortened: as §1

pigweed = assay: Test A pre-/postemergence herbicide test; format: in vivo, Amaranthus retroflexus
Procedure, shortened: as §1

velvetleaf = assay: Test A pre-/postemergence herbicide test; format: in vivo, Abutilon theophrasti
Procedure, shortened: as §1

wheat = assay: Test A pre-/postemergence herbicide test; format: in vivo, Triticum aestivum
Procedure, shortened: as §1

corn = assay: Test A pre-/postemergence herbicide test; format: in vivo, Zea mays
Procedure, shortened: as §1

rice = assay: Test B flooded paddy test; format: in vivo, Oryza sativa; settings: Flood, scale of 0 to 100 where 0 is no effect and 100 is complete control
Procedure, shortened: (§2)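 Plants were grown to the 2-leaf stage, then pots were flooded to 3 cm above the soil and compound was applied directly into the paddy water, with that depth held throughout. After 13 to 15 days in a greenhouse, injury was rated visually against untreated controls on a 0 to 100 scale (100 = complete control).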

sedge, umbrella = assay: Test B flooded paddy test; format: in vivo, Cyperus difformis; settings: Flood, scale of 0 to 100 where 0 is no effect and 100 is complete control
Procedure, shortened: as §2

ducksalad = assay: Test B flooded paddy test; format: in vivo, Heteranthera limosa; settings: Flood, scale of 0 to 100 where 0 is no effect and 100 is complete control
Procedure, shortened: as §2

barnyardgrass [2] = assay: Test B flooded paddy test; format: in vivo, Echinochloa crus-galli; settings: Flood, scale of 0 to 100 where 0 is no effect and 100 is complete control
Procedure, shortened: as §2

[3] = Postemergence, 125 g ai/ha, 0 to 100 scale, 0 is no effect, 100 is complete control
[4] = Postemergence, 500 g ai/ha, 0 to 100 scale (0 no effect, 100 complete control)
[5] = Preemergence, 125 g ai/ha, 0 to 100 scale where 0 is no effect and 100 is complete control
[6] = preemergence, 500 g ai/ha, 0 to 100 scale, 0 is no effect and 100 is complete control
[7] = Postemergence, 1000 g ai/ha, 0 to 100 scale (0 no effect, 100 complete control)
[8] = preemergence, 1000 g ai/ha, 0 to 100 scale
[9] = Postemergence, 125 g ai/ha, 0 to 100 scale, 0 no effect, 100 complete control
[10] = Preemergence, 125 g ai/ha, visual rating on 0 to 100 scale (0 no effect, 100 complete control)
[11] = preemergence, 500 g ai/ha, 0 to 100 scale

O=C1NCC(c2ccc(F)c(F)c2)C1C(=O)Nc1cccc(C(F)(F)F)n1 (racemic) [Compound 245]
70: Plant response rating, Foxtail, Giant (giant foxtail; [6])
30: Plant response rating, Barnyardgrass (barnyardgrass [1]; [3]) | Plant response rating, Crabgrass, Large (crabgrass, large; [4]) | Plant response rating, Foxtail, Giant (giant foxtail; [4]) | Plant response rating, Pigweed (pigweed; [6])
50: Plant response rating, Barnyardgrass (barnyardgrass [1]; [4])
80: Plant response rating, Crabgrass, Large (crabgrass, large; [6])
40: Plant response rating, Pigweed (pigweed; [3]) | Plant response rating, Pigweed (pigweed; [4]) | Plant response rating, Velvetleaf (velvetleaf; [4]) | Plant response rating, Wheat (wheat; [4])
60: Plant response rating, Crabgrass, Large (crabgrass, large; [5]) | Plant response rating, Foxtail, Giant (giant foxtail; [5])
90: Plant response rating, Ducksalad (ducksalad; 1000 g ai/ha)
20: Plant response rating, Barnyardgrass (barnyardgrass [1]; [5]) | Plant response rating, Barnyardgrass (barnyardgrass [1]; [6]) | Plant response rating, Crabgrass, Large (crabgrass, large; [3]) | Plant response rating, Foxtail, Giant (giant foxtail; [3]) | Plant response rating, Velvetleaf (velvetleaf; [3]) | Plant response rating, Barnyardgrass (barnyardgrass [2]; 1000 g ai/ha)
0: Plant response rating, Morningglory (morningglory; [3]) | Plant response rating, Morningglory (morningglory; [4]) | Plant response rating, Morningglory (morningglory; [5]) | Plant response rating, Morningglory (morningglory; [6]) | Plant response rating, Pigweed (pigweed; [5]) | Plant response rating, Velvetleaf (velvetleaf; [5]) | Plant response rating, Velvetleaf (velvetleaf; [6]) | Plant response rating, Wheat (wheat; [3]) | Plant response rating, Wheat (wheat; [5]) | Plant response rating, Wheat (wheat; [6]) | Plant response rating, Corn (corn; [3]) | Plant response rating, Corn (corn; [4]) | Plant response rating, Corn (corn; [5]) | Plant response rating, Corn (corn; [6]) | Plant response rating, Rice (rice; 1000 g ai/ha) | Plant response rating, Sedge, Umbrella (sedge, umbrella; 1000 g ai/ha)

O=C1NCC(c2ccc(F)c(F)c2)C1C(=O)Nc1ccc(F)cc1 (racemic) [Compound 193]
100: Plant response rating, Crabgrass, Large (crabgrass, large; [8])
60: Plant response rating, Ducksalad (ducksalad; 1000 g ai/ha)
20: Plant response rating, Rice (rice; 1000 g ai/ha) | Plant response rating, Sedge, Umbrella (sedge, umbrella; 1000 g ai/ha)
0: Plant response rating, Morningglory (morningglory; [7]) | Plant response rating, Morningglory (morningglory; [8]) | Plant response rating, Pigweed (pigweed; [7]) | Plant response rating, Pigweed (pigweed; [8]) | Plant response rating, Velvetleaf (velvetleaf; [7]) | Plant response rating, Velvetleaf (velvetleaf; [8]) | Plant response rating, Wheat (wheat; [7]) | Plant response rating, Wheat (wheat; [8]) | Plant response rating, Corn (corn; [7]) | Plant response rating, Corn (corn; [8]) | Plant response rating, Barnyardgrass (barnyardgrass [2]; 1000 g ai/ha)
90: Plant response rating, Barnyardgrass (barnyardgrass [1]; [7]) | Plant response rating, Crabgrass, Large (crabgrass, large; [7]) | Plant response rating, Foxtail, Giant (giant foxtail; [8])
80: Plant response rating, Barnyardgrass (barnyardgrass [1]; preemergence, 1000 g ai/ha, 0 to 100 scale (0 no effect, 100 complete control)) | Plant response rating, Foxtail, Giant (giant foxtail; [7])

N#Cc1cccc(C2CNC(=O)C2C(=O)Nc2ccccc2F)c1 (racemic) [Compound 72]
10: Plant response rating, Foxtail, Giant (giant foxtail; [9]) | Plant response rating, Morningglory (morningglory; [4])
80: Crabgrass, Large plant response rating (crabgrass, large; [10]) | Plant response rating, Foxtail, Giant (giant foxtail; [11])
50: Plant response rating, Barnyardgrass (barnyardgrass [1]; preemergence, 500 g ai/ha, 0 to 100 scale (0 no effect, 100 complete control)) | Plant response rating, Foxtail, Giant (giant foxtail; [4])
20: Plant response rating, Barnyardgrass (barnyardgrass [1]; [9])
70: Plant response rating, Crabgrass, Large (crabgrass, large; [4])
90: Plant response rating, Crabgrass, Large (crabgrass, large; [11])
30: Plant response rating, Crabgrass, Large (crabgrass, large; [9])
60: Plant response rating, Barnyardgrass (barnyardgrass [1]; [4]) | Foxtail, Giant plant response rating (giant foxtail; [10]) | Plant response rating, Ducksalad (ducksalad; 250 g ai/ha)
0: Barnyardgrass plant response rating (barnyardgrass [1]; [10]) | Plant response rating, Morningglory (morningglory; [9]) | Morningglory plant response rating (morningglory; [10]) | Plant response rating, Morningglory (morningglory; [11]) | Plant response rating, Pigweed (pigweed; [9]) | Plant response rating, Pigweed (pigweed; [4]) | Pigweed plant response rating (pigweed; [10]) | Plant response rating, Pigweed (pigweed; [11]) | Plant response rating, Velvetleaf (velvetleaf; [9]) | Plant response rating, Velvetleaf (velvetleaf; [4]) | Velvetleaf plant response rating (velvetleaf; [10]) | Plant response rating, Velvetleaf (velvetleaf; [11]) | Plant response rating, Wheat (wheat; [9]) | Plant response rating, Wheat (wheat; [4]) | Wheat plant response rating (wheat; [10]) | Plant response rating, Wheat (wheat; [11]) | Plant response rating, Corn (corn; [9]) | Plant response rating, Corn (corn; [4]) | Corn plant response rating (corn; [10]) | Plant response rating, Corn (corn; [11]) | Plant response rating, Rice (rice; 250 g ai/ha) | Plant response rating, Sedge, Umbrella (sedge, umbrella; 250 g ai/ha) | Plant response rating, Barnyardgrass (barnyardgrass [2]; 250 g ai/ha)

Reference: US10294202B2, “Pyrrolidinones as herbicides” (FMC Corporation, priority 2013, dated 2019)
